Results published in ChEMBL document CHEMBL1201862, “PubChem BioAssay data set” (2004).
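The compound was tested at five concentrations on cells cultured in 96-well plates, with a 48-hour exposure period. Here, GI50 denotes the concentration required for 50% inhibition of growth.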 Calls of active or inactive are those of the source. Rule as the data show it: active = GI50 up to about 1.1 µM and inactive = higher.

How the values were obtained:
Assay in all cases: inhibition of tumour cell growth, NCI panel, 48 h
A498 = system: A498
EKVX = system: EKVX
HCT-116 = system: HCT-116
HL-60 = system: HL-60
HOP-62 = system: HOP-62
Hs-578T = system: Hs-578T
KM12 = system: KM12
LOX IMVI = system: LOX IMVI
MOLT-4 = system: MOLT-4
NCI-H226 = system: NCI-H226
NCI-H23 = system: NCI-H23
NCI-H522 = system: NCI-H522
OVCAR-4 = system: OVCAR-4
SF-295 = system: SF-295
SK-MEL-5 = system: SK-MEL-5
SK-OV-3 = system: SK-OV-3
SNB-19 = system: SNB-19
SNB-75 = system: SNB-75
SR = system: SR
UACC-257 = system: UACC-257

SMILES	GI50 (A498)	GI50 (EKVX)	GI50 (HCT-116)	GI50 (HL-60)	GI50 (HOP-62)	GI50 (Hs-578T)	GI50 (KM12)	GI50 (LOX IMVI)	GI50 (MOLT-4)	GI50 (NCI-H226)	GI50 (NCI-H23)	GI50 (NCI-H522)	GI50 (OVCAR-4)	GI50 (SF-295)	GI50 (SK-MEL-5)	GI50 (SK-OV-3)	GI50 (SNB-19)	GI50 (SNB-75)	GI50 (SR)	GI50 (UACC-257)
Nc1ccc2c(c1)N(C(=O)CCCC(=O)N1CC(CCl)c3ccc(N)cc31)CC2CCl (stereo not given)	1.07 µM (active)	1.51 µM (inactive)	0.394 µM (active)	0.0199 µM (active)	0.262 µM (active)	0.918 µM (active)	0.948 µM (active)	0.267 µM (active)	0.0646 µM (active)	0.0226 µM (active)	0.218 µM (active)	0.0713 µM (active)	0.867 µM (active)	0.4 µM (active)	0.236 µM (active)	2.34 µM (inactive)	1.21 µM (inactive)	0.535 µM (active)	0.017 µM (active)	1.26 µM (inactive)
CCCC(=O)N(C(=O)CCC)C1=C(Cl)C(=O)c2ccccc2C1=O	18.3 µM (inactive)	5.36 µM (inactive)	2.72 µM (inactive)	0.574 µM (active)	11.9 µM (inactive)	8.04 µM (inactive)	3.49 µM (inactive)	3.66 µM (inactive)	3.25 µM (inactive)	8.38 µM (inactive)	2.65 µM (inactive)	0.611 µM (active)	5.52 µM (inactive)	15.8 µM (inactive)	3.1 µM (inactive)	15.5 µM (inactive)	6.73 µM (inactive)	3.18 µM (inactive)	3.02 µM (inactive)	3.42 µM (inactive)
COc1cccc2c1C(=O)c1c(O)c3c(c(O)c1C2=O)C[C@@](O)(C(C)=O)C[C@@H]3OC1CC(O)C(O)C(C)O1 (stereo not given in full)	3.05 µM (inactive)	6.67 µM (inactive)	0.288 µM (active)	0.0501 µM (active)	0.307 µM (active)	0.998 µM (active)	1.55 µM (inactive)	0.59 µM (active)	0.0208 µM (active)	0.289 µM (active)	0.942 µM (active)	1.82 µM (inactive)	3.81 µM (inactive)	0.673 µM (active)	0.875 µM (active)	4.51 µM (inactive)	1.09 µM (active)	1.62 µM (inactive)	0.00935 µM (active)	3.79 µM (inactive)
O=C1CSC(c2ccccc2[N+](=O)[O-])N1c1ccc(-n2c(-c3ccccc3)nc3ccccc3c2=O)cc1 (stereo not given)	38.4 µM (inactive)	47.4 µM (inactive)	37.8 µM (inactive)	> 100 µM (inactive)	21.3 µM (inactive)	20.8 µM (inactive)	48.5 µM (inactive)	28.6 µM (inactive)	16.6 µM (inactive)	28.4 µM (inactive)	> 100 µM (inactive)	22.4 µM (inactive)	23.4 µM (inactive)	24.5 µM (inactive)	70.5 µM (inactive)	12.5 µM (inactive)	32.7 µM (inactive)	19.5 µM (inactive)	19.8 µM (inactive)	> 100 µM (inactive)
CC(C)=CCC[C@@H](C)C1=C(O)C(=O)C(C)=C(N[C@H](C)c2ccccc2)C1=O	3.91 µM (inactive)	5.08 µM (inactive)	4.66 µM (inactive)	2.21 µM (inactive)	2.92 µM (inactive)	6.12 µM (inactive)	6.3 µM (inactive)	4.53 µM (inactive)	2.54 µM (inactive)	4.27 µM (inactive)	4.38 µM (inactive)	3.2 µM (inactive)	5.75 µM (inactive)	3.86 µM (inactive)	3.08 µM (inactive)	3.84 µM (inactive)	6.07 µM (inactive)	2.53 µM (inactive)	22.3 µM (inactive)	8.36 µM (inactive)
O=C1CN2C(c3ccccc3)=NN(c3ccc([N+](=O)[O-])cc3)C2(c2ccccc2)c2cc(Cl)ccc2N1CC1CC1 (stereo not given)	> 100 µM (inactive)	> 100 µM (inactive)	> 100 µM (inactive)	< 0.01 µM (active)	> 100 µM (inactive)	> 100 µM (inactive)	> 100 µM (inactive)	> 100 µM (inactive)	79.4 µM (inactive)	> 100 µM (inactive)	> 100 µM (inactive)	> 100 µM (inactive)	> 100 µM (inactive)	> 100 µM (inactive)	> 100 µM (inactive)	> 100 µM (inactive)	> 100 µM (inactive)	> 100 µM (inactive)	> 100 µM (inactive)	> 100 µM (inactive)
O=C(O)[C@H]1NC[C@@H]2ON=C(Br)[C@@H]21	> 100 µM (inactive)	> 100 µM (inactive)	> 100 µM (inactive)	> 100 µM (inactive)	> 100 µM (inactive)	> 100 µM (inactive)	> 100 µM (inactive)	> 100 µM (inactive)	> 100 µM (inactive)	> 100 µM (inactive)	> 100 µM (inactive)	> 100 µM (inactive)	> 100 µM (inactive)	> 100 µM (inactive)	> 100 µM (inactive)	> 100 µM (inactive)	> 100 µM (inactive)	> 100 µM (inactive)	> 100 µM (inactive)	> 100 µM (inactive)
O=C(CCCCCC(=O)N1CC(CCl)c2ccc([N+](=O)[O-])cc21)N1CC(CCl)c2ccc([N+](=O)[O-])cc21 (stereo not given)	87.1 µM (inactive)	> 100 µM (inactive)	> 100 µM (inactive)	75.3 µM (inactive)	95.7 µM (inactive)	> 100 µM (inactive)	> 100 µM (inactive)	> 100 µM (inactive)	> 100 µM (inactive)	> 100 µM (inactive)	> 100 µM (inactive)	> 100 µM (inactive)	> 100 µM (inactive)	87.1 µM (inactive)	52.5 µM (inactive)	> 100 µM (inactive)	> 100 µM (inactive)	48.1 µM (inactive)	9.31 µM (inactive)	> 100 µM (inactive)
CN1CCN(CCCCNc2cc3c4ccccc4c(NCCCCN4CCN(C)CC4)cc3c3ccccc23)CC1	12 µM (inactive)	7.43 µM (inactive)	0.604 µM (active)	4.03 µM (inactive)	3.59 µM (inactive)	2.38 µM (inactive)	1.55 µM (inactive)	0.962 µM (active)	0.41 µM (active)	13.4 µM (inactive)	2.09 µM (inactive)	1.93 µM (inactive)	1.36 µM (inactive)	1.78 µM (inactive)	1.44 µM (inactive)	14.6 µM (inactive)	4.49 µM (inactive)	3.38 µM (inactive)	0.443 µM (active)	4.79 µM (inactive)
COc1ccccc1N1C(=O)CS(=O)(=O)C1c1cccc(Oc2ccccc2)c1 (stereo not given)	18.9 µM (inactive)	20.8 µM (inactive)	13.5 µM (inactive)	12.7 µM (inactive)	18.6 µM (inactive)	19.1 µM (inactive)	15.7 µM (inactive)	17.8 µM (inactive)	13.9 µM (inactive)	14.6 µM (inactive)	16.7 µM (inactive)	12.6 µM (inactive)	15 µM (inactive)	16.7 µM (inactive)	14.4 µM (inactive)	23.8 µM (inactive)	18 µM (inactive)	20 µM (inactive)	5.57 µM (inactive)	11.9 µM (inactive)
CC(C)OC(=O)c1ccc(NCC2=CC(=O)C=CC2=O)cc1	27.2 µM (inactive)	17.3 µM (inactive)	14.4 µM (inactive)	2.2 µM (inactive)	> 95.5 µM (inactive)	18.3 µM (inactive)	16.6 µM (inactive)	12.8 µM (inactive)	2.39 µM (inactive)	30 µM (inactive)	13.6 µM (inactive)	1.69 µM (inactive)	12.8 µM (inactive)	28.2 µM (inactive)	17.4 µM (inactive)	42 µM (inactive)	29.4 µM (inactive)	18.5 µM (inactive)	2.39 µM (inactive)	14.1 µM (inactive)
COc1ccc(C)cc1Nc1nnc(-c2ccc(N)cc2)s1	> 100 µM (inactive)	2.65 µM (inactive)	49.4 µM (inactive)	32.7 µM (inactive)	51.8 µM (inactive)	> 100 µM (inactive)	46.2 µM (inactive)	39.4 µM (inactive)	35.3 µM (inactive)	44.9 µM (inactive)	88.1 µM (inactive)	60.3 µM (inactive)	> 100 µM (inactive)	43.4 µM (inactive)	24.5 µM (inactive)	> 100 µM (inactive)	> 100 µM (inactive)	> 100 µM (inactive)	38.4 µM (inactive)	81.1 µM (inactive)
N=C1C=CC(=C(c2ccc(N)cc2)c2ccc(N)cc2)C=C1	6.97 µM (inactive)	5.58 µM (inactive)	3.87 µM (inactive)	3.85 µM (inactive)	3.3 µM (inactive)	0.51 µM (active)	3.01 µM (inactive)	3.91 µM (inactive)	3.73 µM (inactive)	3.68 µM (inactive)	3.63 µM (inactive)	2.64 µM (inactive)	9.93 µM (inactive)	3.99 µM (inactive)	1.09 µM (active)	13.1 µM (inactive)	0.532 µM (active)	0.519 µM (active)	11.1 µM (inactive)	4.59 µM (inactive)
